This is an account of results in patent publication US20160376240A1, “6 Phenyl or 6 Pyridin 3 YL Indazole Derivatives and Methods of Use” (ABBVIE INC., priority 2014, published 2016).

Molecules are shown by their SMILES.

The test deals with T1, TrkA (Homo sapiens, UniProt P04629).
T1 construct: purchased Invitrogen PV3144
As to the kind of experiment: TrkA kinase inhibition, HTRF assay. Conditions: LCK peptide substrate 125 nM, TrkA 2-10 nM pre-incubated with ATP 200 μM. It counts as biochemical. An outline of the steps:
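TrkA (2-10 nM) preactivated 20 min with 200 μM ATP in HEPES pH 7.4 with Mg2+/Mn2+, then compound for 10 min, then 125 nM biotinylated LCK-peptide for 1 h at ambient temperature. HTRF 665/620 ratio read; IC50 fitted from initial-rate percent inhibition.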

T1 sequence (P04629 33-796): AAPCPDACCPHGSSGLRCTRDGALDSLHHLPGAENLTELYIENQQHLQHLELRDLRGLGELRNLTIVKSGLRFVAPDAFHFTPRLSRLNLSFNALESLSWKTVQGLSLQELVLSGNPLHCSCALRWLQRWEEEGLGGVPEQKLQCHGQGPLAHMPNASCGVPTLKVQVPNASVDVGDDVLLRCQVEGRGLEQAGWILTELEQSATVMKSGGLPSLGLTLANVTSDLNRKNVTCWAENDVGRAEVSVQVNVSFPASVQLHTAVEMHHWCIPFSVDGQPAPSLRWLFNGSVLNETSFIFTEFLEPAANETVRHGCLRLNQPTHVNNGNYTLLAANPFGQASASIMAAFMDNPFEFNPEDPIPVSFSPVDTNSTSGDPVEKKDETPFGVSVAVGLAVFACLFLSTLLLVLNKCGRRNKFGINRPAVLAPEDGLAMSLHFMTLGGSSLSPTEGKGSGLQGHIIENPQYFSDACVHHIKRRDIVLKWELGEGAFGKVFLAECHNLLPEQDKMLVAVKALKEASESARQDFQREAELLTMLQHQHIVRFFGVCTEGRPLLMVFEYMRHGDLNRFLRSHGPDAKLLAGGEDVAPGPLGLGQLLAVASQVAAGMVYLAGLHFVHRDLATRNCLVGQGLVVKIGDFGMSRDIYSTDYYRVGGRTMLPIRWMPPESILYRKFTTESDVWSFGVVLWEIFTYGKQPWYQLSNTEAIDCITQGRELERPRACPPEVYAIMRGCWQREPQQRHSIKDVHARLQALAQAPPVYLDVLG

Take `CNC(=O)c1ccc(-c2cc(OC3CCOCC3)c3c(N)n[nH]c3c2)cc1N1CCN(c2cccnc2)CC1` [Example 31, 4-[3-amino-4-(tetrahydro-2H-pyran-4-yloxy)-1H-indazol-6-yl]-N-methyl-2-[4-(pyridin-3-yl)piperazin-1-yl]benzamide]: the midpoint of inhibition, the IC50, lay at 42.1 nM.
Then `Cc1n[nH]c2cc(-c3ccc(C(N)=O)c(N4CCN(C(=O)OC(C)(C)C)CC4)c3)cc(OC3CCOCC3)c12` [Example 140, tert-butyl 4-{2-carbamoyl-5-[3-methyl-4-(tetrahydro-2H-pyran-4-yloxy)-1H-indazol-6-yl]phenyl}piperazine-1-carboxylate], with 31.9 nM; and `CC(=O)c1ccc(-c2cc(OC3CCOCC3)c3c(N)n[nH]c3c2)cc1N1CCN(CCC(C)(C)C)CC1` [Example 18, 1-{4-[3-amino-4-(tetrahydro-2H-pyran-4-yloxy)-1H-indazol-6-yl]-2-[4-(3,3-dimethylbutyl)piperazin-1-yl]phenyl}ethanone], with 36.4 nM; and `CNC(=O)c1ccc(-c2cc(O[C@H](C)C(F)(F)F)c3c(N)n[nH]c3c2)cc1N1CCN(C2CCCC2)CC1` [Example 53, 4-(3-amino-4-{[(2R)-1,1,1-trifluoropropan-2-yl]oxy}-1H-indazol-6-yl)-2-(4-cyclopentylpiperazin-1-yl)-N-methylbenzamide], with 44.4 nM.
For the compound `CNC(=O)c1ccc(-c2cc(OC3CCOCC3)c3c(C)n[nH]c3c2)cc1N1CCN(Cc2cccnc2)CC1` [Example 123, N-methyl-4-[3-methyl-4-(tetrahydro-2H-pyran-4-yloxy)-1H-indazol-6-yl]-2-[4-(pyridin-3-ylmethyl)piperazin-1-yl]benzamide], it took 3.75 nM to reach half-maximal inhibition (IC50).
To `NC(=O)c1ccc(-c2cc(OC3CCCC3)c3c(N)n[nH]c3c2)cc1N1CCN(C2CC2)CC1` [Example 78, 4-[3-amino-4-(cyclopentyloxy)-1H-indazol-6-yl]-2-(4-cyclopropylpiperazin-1-yl)benzamide] belongs 20.1 nM; to `CNC(=O)c1ccc(-c2cc(O[C@H](C)C(F)(F)F)c3c(N)n[nH]c3c2)cc1N1CCN(c2cccnc2)CC1` [Example 49, 4-(3-amino-4-{[(2R)-1,1,1-trifluoropropan-2-yl]oxy}-1H-indazol-6-yl)-N-methyl-2-[4-(pyridin-3-yl)piperazin-1-yl]benzamide], 141 nM; to `CNC(=O)c1ccc(-c2cc(OC3CCOCC3)c3c(C)n[nH]c3c2)cc1N1CCN(CC(F)(F)F)CC1` [Example 143, N-methyl-4-[3-methyl-4-(tetrahydro-2H-pyran-4-yloxy)-1H-indazol-6-yl]-2-[4-(2,2,2-trifluoroethyl)piperazin-1-yl]benzamide], 95.8 nM.
For the compound `CNC(=O)c1ccc(-c2cc(O[C@@H](C)C(F)(F)F)c3c(N)n[nH]c3c2)cc1N1CCN(c2cnccn2)CC1` [Example 46, 4-(3-amino-4-{[(2S)-1,1,1-trifluoropropan-2-yl]oxy}-1H-indazol-6-yl)-N-methyl-2-[4-(pyrazin-2-yl)piperazin-1-yl]benzamide], the 50% inhibitory concentration (IC50) stood at 32.5 nM.
`CC(O)c1ccc(-c2cc(OC3CCOCC3)c3c(N)n[nH]c3c2)cc1N1CCN(c2cccnc2)CC1` (centres unmarked) [Example 22, 1-{4-[3-amino-4-(tetrahydro-2H-pyran-4-yloxy)-1H-indazol-6-yl]-2-[4-(pyridin-3-yl)piperazin-1-yl]phenyl}ethanol] came in with a concentration for half-maximal inhibition (IC50) of 254 nM.
Then `CC(=O)Nc1ccc(-c2cc(OC3CCOCC3)c3c(C)n[nH]c3c2)cc1N1CCN(C(=O)NC(C)C)CC1` [Example 151, 4-{2-acetamido-5-[3-methyl-4-(tetrahydro-2H-pyran-4-yloxy)-1H-indazol-6-yl]phenyl}-N-isopropylpiperazine-1-carboxamide], with 166 nM; and `NC(=O)c1ccc(-c2cc(OC3CCOCC3)c3c(N)n[nH]c3c2)cc1N1CCN(CCc2ccccn2)CC1` [Example 10, 4-[3-amino-4-(tetrahydro-2H-pyran-4-yloxy)-1H-indazol-6-yl]-2-{4-[2-(pyridin-2-yl)ethyl]piperazin-1-yl}benzamide], with 136 nM.
The compound `Cc1n[nH]c2cc(-c3ccc(C#N)c(N4CCN(CC(F)(F)F)CC4)c3)cc(OC3CCOCC3)c12` [Example 156, 4-[3-methyl-4-(tetrahydro-2H-pyran-4-yloxy)-1H-indazol-6-yl]-2-[4-(2,2,2-trifluoroethyl)piperazin-1-yl]benzonitrile] displayed an IC50 of 29.1 nM.
`CC(=O)c1ccc(-c2cc(OC3CCOCC3)c3c(N)n[nH]c3c2)cc1N1CCN(c2cccnc2)CC1` [Example 16, 1-{4-[3-amino-4-(tetrahydro-2H-pyran-4-yloxy)-1H-indazol-6-yl]-2-[4-(pyridin-3-yl)piperazin-1-yl]phenyl}ethanone] came in with an IC50 of 29.6 nM. This IC50 and that of the compound before are within 1.5-fold of each other.
Then `CC(=O)Nc1ccc(-c2cc(OC3CCOCC3)c3c(C)n[nH]c3c2)cc1N1CCN(Cc2ccccc2)CC1` [Example 145, N-{2-(4-benzylpiperazin-1-yl)-4-[3-methyl-4-(tetrahydro-2H-pyran-4-yloxy)-1H-indazol-6-yl]phenyl}acetamide], with 12.6 nM.
Then `CC(=O)Nc1ccc(-c2cc(OC3CCOCC3)c3c(C)n[nH]c3c2)cc1N1CCN(C(=O)OC(C)C)CC1` [Example 146, isopropyl 4-{2-acetamido-5-[3-methyl-4-(tetrahydro-2H-pyran-4-yloxy)-1H-indazol-6-yl]phenyl}piperazine-1-carboxylate], with 4.43 nM.
With `CNC(=O)c1ccc(-c2cc(OC3CCOCC3)c3c(N)n[nH]c3c2)cc1N1CCN(C(=O)C2CC2)CC1` [Example 32, 4-[3-amino-4-(tetrahydro-2H-pyran-4-yloxy)-1H-indazol-6-yl]-2-[4-(cyclopropylcarbonyl)piperazin-1-yl]-N-methylbenzamide], the concentration for half-maximal inhibition (IC50) stood at 376 nM. Compared with the last compound, the IC50 is about 85-fold higher.
To `CC(=O)c1ccc(-c2cc(OC3CCOCC3)c3c(N)n[nH]c3c2)cc1N1CCN(C(=O)C2CC2)CC1` [Example 20, 1-{4-[3-amino-4-(tetrahydro-2H-pyran-4-yloxy)-1H-indazol-6-yl]-2-[4-(cyclopropylcarbonyl)piperazin-1-yl]phenyl}ethanone] belongs 101 nM; to `CC(=O)N1CCC(Oc2cc(-c3ccc(C(N)=O)c(N4CCN(c5ccccc5)CC4)c3)cc3[nH]nc(N)c23)CC1` [Example 64, 4-{4-[(1-acetylpiperidin-4-yl)oxy]-3-amino-1H-indazol-6-yl}-2-(4-phenylpiperazin-1-yl)benzamide], 8.45 nM.
Then `Cc1n[nH]c2cc(-c3ccc(C(=O)NC4CCC4)c(N4CCN(C5CCCCC5)CC4)c3)cc(OC3CCOCC3)c12` [Example 118, N-cyclobutyl-2-(4-cyclohexylpiperazin-1-yl)-4-[3-methyl-4-(tetrahydro-2H-pyran-4-yloxy)-1H-indazol-6-yl]benzamide], with 39.8 nM.
`NC(=O)c1ccc(-c2ccc3c(N)n[nH]c3c2)cc1N1CCN(c2cccnc2)CC1` [Example 90, 4-(3-amino-1H-indazol-6-yl)-2-[4-(pyridin-3-yl)piperazin-1-yl]benzamide] returned a concentration for half-maximal inhibition (IC50) of 227 nM.
To `CNC(=O)c1ccc(-c2cc(OC3CCOCC3)c3c(N)n[nH]c3c2)cc1N1CCN(CC2CC(F)(F)C2)CC1` [Example 171, 4-[3-amino-4-(tetrahydro-2H-pyran-4-yloxy)-1H-indazol-6-yl]-2-{4-[(3,3-difluorocyclobutyl)methyl]piperazin-1-yl}-N-methylbenzamide] belongs 5.5 nM.
Then `CNC(=O)c1ccc(-c2cc(OC3CCOCC3)c3c(N)n[nH]c3c2)cc1N1CCN(CC(C)(F)F)CC1` [Example 172, 4-[3-amino-4-(tetrahydro-2H-pyran-4-yloxy)-1H-indazol-6-yl]-2-[4-(2,2-difluoropropyl)piperazin-1-yl]-N-methylbenzamide], with 22 nM; and `CCNC(=O)c1ccc(-c2cc(OC3CCOCC3)c3c(C)n[nH]c3c2)cc1N1CCN(c2ccccc2)CC1` [Example 115, N-ethyl-4-[3-methyl-4-(tetrahydro-2H-pyran-4-yloxy)-1H-indazol-6-yl]-2-(4-phenylpiperazin-1-yl)benzamide], with 32.8 nM.
Turning to `C=CC(=O)Nc1ccc(-c2cc(OC3CCOCC3)c3c(C)n[nH]c3c2)cc1N1CCN(C2CCCCC2)CC1` [Example 131, N-{2-(4-cyclohexylpiperazin-1-yl)-4-[3-methyl-4-(tetrahydro-2H-pyran-4-yloxy)-1H-indazol-6-yl]phenyl}acrylamide], the half-maximal inhibitory concentration (IC50) was found to be 46.9 nM.
In turn, `CNC(=O)c1ccc(-c2cc(O[C@@H](C)C(F)(F)F)c3c(N)n[nH]c3c2)cc1N1CCN(CCC(C)(C)C)CC1` [Example 40, 4-(3-amino-4-{[(2S)-1,1,1-trifluoropropan-2-yl]oxy}-1H-indazol-6-yl)-2-[4-(3,3-dimethylbutyl)piperazin-1-yl]-N-methylbenzamide] gave a concentration for half-maximal inhibition (IC50) of 71.4 nM. Compared with the last compound, the IC50 is about 1.5-fold higher.
Then `CNC(=O)c1ccc(-c2cc(O[C@H](C)C(F)(F)F)c3c(N)n[nH]c3c2)cc1OCCOC1CCCCC1` [Example 105, 4-(3-amino-4-{[(2R)-1,1,1-trifluoropropan-2-yl]oxy}-1H-indazol-6-yl)-2-[2-(cyclohexyloxy)ethoxy]-N-methylbenzamide], with 3.23 nM; and `NC(=O)c1ccc(-c2cc(OC3CCOCC3)c3c(N)n[nH]c3c2)cc1N1CCN(c2cccc(Cl)c2)CC1` [Example 12, 4-[3-amino-4-(tetrahydro-2H-pyran-4-yloxy)-1H-indazol-6-yl]-2-[4-(3-chlorophenyl)piperazin-1-yl]benzamide], with 2.9 nM; and `CNC(=O)c1ccc(-c2cc(OC3CCOCC3)c3c(C)n[nH]c3c2)cc1N1CCN(C(=O)OCCOC)CC1` [Example 138, 2-methoxyethyl 4-{2-(methylcarbamoyl)-5-[3-methyl-4-(tetrahydro-2H-pyran-4-yloxy)-1H-indazol-6-yl]phenyl}piperazine-1-carboxylate], with 25.1 nM.

For orientation: IC50 means the concentration that inhibits the measured activity by half.
